{
  "source": "patent US11241412B2",
  "about": "(priority 2015, dated 2022)",
  "key": {"[1]": {"experiment": "Safety of tumescent drug delivery: subcutaneous infiltration of 20 ml tumescent solutions", "details": "for ecchymosis / local tenderness upon palpation / stinging upon injection: subcutaneous TI, 20 ml, 6 of 6 subjects", "experimental": "We studied 6 subjects over 6 days after subcutaneous infiltration of a 20 ml of tumescent solutions of acyclovir and 20 ml of tumescent gentamicin with 20 ml of subcutaneous normal saline and 20 ml of subcutaneous bacteriostatic saline as controls."}, "[2]": {"details": "mixed together in a saline solution for IV delivery; 8° C.; cited from earlier work"}, "[3]": {"system": "Staphylococcus aureus (MRSA) ATCC 33592", "assay_type": "cell-based", "description": "Determinations of MBC followed the method described in “Report on the Working Party on Antibiotic Sensitivity Testing of the British Society of Antimicrobial Chemotherapy: A Guide to Sensitivity Testing.”"}, "[4]": {"system": "Staphylococcus aureus (MRSA) ATCC 33592", "experiment": "microbe, parasite or virus in culture", "details": "24 h, read-out: MIC end point", "quoted_text": "(§1) Following inoculation, survival of test microorganisms was determined."}, "[5]": {"system": "Staphylococcus aureus (MRSA) ATCC 33592", "details": "combined test product Lidocaine+Cefazolin", "quoted_text": "as §1"}, "[6]": {"details": "for adverse local or systemic effects after subcutaneous tumescent infiltration: dilute drug in TAD solution; for AUC / Cmax: Table 16B", "description": "Five pharmacokinetic studies each involved one IVAD procedure and one or two TAD procedures or a concomitant TAD+IVAD procedure. […] The AUC∞ and Cmax with TAD and with IVAD were compared.\nThe protocol received institutional review board approval and written informed consent was obtained prior to each research procedure. We compared tumescent antibiotic delivery (TAD) and intravenous antibiotic delivery (IVAD) with respect to concentration-time profile, AUC∞, Cmax and T>MIC.\nOnly after a prospective patient had requested liposuction surgery was the person offered the opportunity to participate in this research. Volunteer subjects were offered liposuction at no cost.\nExclusion criteria were: current significant health problems, history or evidence of HIV or Hepatitis C infection and […] of drugs that block cytochrome P450 3A4 or 1A2 or impair hemostasis.\nEach of the 5 studies consisted of one IV antibiotic delivery (IVAD) procedure and one or two TAD infiltration procedures. In individual subjects, procedures were performed at least one week apart.\nMetronidazole for IV delivery is available as 500 mg in 100 ml.\nThe discomfort of tumescent infiltration was minimized by a sequential infiltration technique: first using a spinal needle to infiltrate a relatively small volume of TAD sufficient to provide minimal anesthesia to allow comfortable insertion of blunt-tipped 16 gauge tumescent infiltration cannulas that provide large volume infiltration. The spinal needle and blunt-tipped infiltration cannulas were inserted through the skin via 1 mm adits made by a 1 mm skin biopsy punch. All patients were fully awake and received no parenteral sedation.\nSample Collection: After […], only serum concentrations were measured. After TAD both serum and TISF concentrations were measured. IVAD was achieved via an antecubital vein. Serum samples were obtained via an indwelling IV catheter in the contralateral antecubital vein.\nA two-syringe sampling technique first removed 2 mL of blood, which was discarded, and then 10 mL of blood was obtained in a second syringe for drug assay. After each blood sample the IV catheter was flushed with 2 ml of saline and then 0.5 mL of heparin (10 units/mL).\nSequential samples of tumescent adipose tissue (10 ml to 20 ml) were obtained by the hand-held syringe liposuction technique. Sampling began at time T0 immediately after completing TAD infiltration and continued every 1 to 2 hours until the subject experienced significant discomfort as the result of diminishing local anesthesia. Samples of the subcutaneous tissue aspirate were centrifuged. The supranatant fat was discarded.\nData Analysis: We recorded the effect of varying the mg dose and mg/L concentration of antibiotics within TAD solutions between procedures in individual subjects and between different subjects.\nLinear regression analysis was used to determine the correlation (coefficient of determination R2) between the antibiotic concentration (mg/L) in a TAD solution and Cmax in the infranatant liposuctioned subcutaneous tissue TISF. After TAD and after IVAD, Cmax in serum was determined by inspection of the sequential assays. AUC∞ was determined by the trapezoid rule.\nAt the time when each sample of TISF was obtained, patients were examined and questioned about signs and symptoms of subcutaneous tissue toxicity including unusual soreness, tenderness, discoloration, swelling at sites of subcutaneous tumescent infiltration. […] One week after TAD patients were questioned by telephone about any signs and symptoms of subcutaneous tissue toxicity at the sites of TAD."}, "platelet function": {"system": "platelet function", "experiment": "Bleeding time and bleeding area before and after tumescent lidocaine exposure (Duke method)", "assay_type": "in vivo, human", "details": "post-op tumescent lidocaine exposure", "experimental": "The skin of the left and right thigh of a subject is cleaned and allowed to dry. […] Simultaneous 4 mm deep puncture wounds are made to the same area of the left and right thighs with disposable lancets. The puncture sites are blotted with filter paper every 30 seconds, until bleeding stops and the bleeding time for each thigh is recorded. The bleeding times of the left and right thigh are compared to determine if administration of TLAnti increases bleeding time. Normal bleeding time measured by the Duke method is 1 to 3 minutes.\nIn a preliminary experiment, bleeding time and bleeding area were measured in a patient before and after tumescent lidocaine exposure. […] In contrast, there was a 40% increase in Average Bleeding Area (BA). Bleeding Area (BA) was a more sensitive and a more specific test for platelet function compared to Bleeding Time (BT). […] In otherwords, TAD may reduce the risk of both post-operative surgical site infection and post-operative thromboembolism."}, "[7]": {"system": "platelet aggregation induced by ADP, epinephrine and collagen", "details": "cited from earlier work"}, "[8]": {"details": "adults; TLA without liposuction"}, "human neutrophils": {"system": "human neutrophils", "details": "cited from earlier work"}, "[9]": {"details": "commercial lidocaine (1%) with epinephrine (1:100,000); cited from earlier work"}, "[10]": {"details": "Abdomen, TISF, TAD, 172 mg/L, TAD dose 600 mg"}, "[11]": {"details": "Abdomen, serum, TAD, 172 mg/L, TAD dose 600 mg"}},
  "note": "Where “and” joins values, the source holds several entries; their conditions need not be identical. Equal entries are not always repeated. Where two headings read alike, the source gives them in different places.",
  "data": [
    {"compound": "Nc1nc2c(ncn2COCCO)c(=O)[nH]1", "note": "[Acyclovir]", "values": [
      {"measurement": "ecchymosis", "setting": "[1]", "result": "no ecchymosis"},
      {"measurement": "local tenderness upon palpation", "setting": "[1]", "result": "no local tenderness upon palpation"},
      {"measurement": "stinging upon injection", "setting": "[1]", "result": "no stinging upon injection"}
    ]},
    {"compound": "Cc1nnc(SCC2=C(C(=O)O)N3C(=O)[C@@H](NC(=O)Cn4cnnn4)[C@H]3SC2)s1", "note": "[Cefazolin]", "values": [
      {"measurement": "chemically stable for", "setting": "[2]", "result": "at least 72 hours"},
      {"measurement": "MRSA survival (MBC test)", "setting": "[3]; 62.5 mg/L, Day 1, MRSA Inoculum 4.7 × 10^5 CFU/ml", "result": "+"},
      {"measurement": "MRSA survival (MBC test)", "setting": "[3]; 62.5 mg/L, Day 2, MRSA Inoculum 4.4 × 10^5 CFU/ml", "result": "+"},
      {"measurement": "MRSA survival (MBC test)", "setting": "[3]; 125 mg/L, Day 1, MRSA Inoculum 4.7 × 10^5 CFU/ml", "result": "+"},
      {"measurement": "MRSA survival (MBC test)", "setting": "[3]; 125 mg/L, Day 2, MRSA Inoculum 4.4 × 10^5 CFU/ml", "result": "+"},
      {"measurement": "MRSA survival (MBC test)", "setting": "[3]; 250 mg/L, Day 1, MRSA Inoculum 4.7 × 10^5 CFU/ml", "result": 0},
      {"measurement": "MRSA survival (MBC test)", "setting": "[3]; 250 mg/L, Day 2, MRSA Inoculum 4.4 × 10^5 CFU/ml", "result": 0},
      {"measurement": "MIC", "setting": "[4]", "result": 125, "unit": "µg/mL"},
      {"measurement": "potency of Cefazolin against MRSA in the presence of Lidocaine", "setting": "[5]", "result": "not inhibited by the presence of Lidocaine"}
    ]},
    {"compound": "CNC[C@H](O)c1ccc(O)c(O)c1", "note": "[Epinephrine]", "values": [
      {"measurement": "adverse local or systemic effects after subcutaneous tumescent infiltration", "setting": "[6]", "result": "no adverse local or systemic effects"}
    ]},
    {"compound": "CCN(CC)CC(=O)Nc1c(C)cccc1C", "note": "[Lidocaine]", "values": [
      {"measurement": "adverse local or systemic effects after subcutaneous tumescent infiltration", "setting": "[6]", "result": "no adverse local or systemic effects"},
      {"measurement": "Average Bleeding Area (BA)", "setting": "platelet function; Patient 1 (control BA = 541)", "result": "BA = 759"},
      {"measurement": "Average Bleeding Time (BT)", "setting": "platelet function; Patient 1 (control BT = 6)", "result": "BT = 5.75"},
      {"measurement": "Bleeding Time BT × 2", "setting": "platelet function; Patient 1, single tests T3, T4", "result": "10 and 13"},
      {"measurement": "MRSA survival (MBC test)", "setting": "[3]; 1,000 mg/L, Day 1, MRSA Inoculum 4.7 × 10^5 CFU/ml", "result": "+"},
      {"measurement": "MRSA survival (MBC test)", "setting": "[3]; 1,000 mg/L, Day 2, MRSA Inoculum 4.4 × 10^5 CFU/ml", "result": "+"},
      {"measurement": "MRSA survival (MBC test)", "setting": "[3]; 5,000 mg/L, Day 2, MRSA Inoculum 4.4 × 10^5 CFU/ml", "result": "+"},
      {"measurement": "MRSA survival (MBC test)", "setting": "[3]; 10,000 mg/L, Day 2, MRSA Inoculum 4.4 × 10^5 CFU/ml", "result": 0},
      {"measurement": "lidocaine concentration that consistently inhibits in-vitro platelet aggregation", "setting": "[7]; aggregation induced by ADP, epinephrine and collagen", "result": "≥ 0.5", "unit": "mg/mL"},
      {"measurement": "effect on platelet aggregation induced by ADP", "setting": "[7]", "result": "inhibit platelet aggregation induced by ADP"},
      {"measurement": "effect on platelet aggregation", "setting": "[7]; safe systemic concentrations (e.g. ≤6 micrograms/ml)", "result": "no effect on platelet aggregation"},
      {"measurement": "maximum safe dosage (estimated)", "setting": "[8]", "result": 30, "unit": "mg/kg"},
      {"measurement": "reactive oxygen species (ROS) production by human neutrophils", "setting": "human neutrophils; concentrations 100-fold higher than safe serum lidocaine concentrations (≤5 μg/ml)", "result": "effectively reduced reactive oxygen species (ROS) production"},
      {"measurement": "effect on ROS", "setting": "human neutrophils; therapeutic serum lidocaine concentrations", "result": "no effect on ROS"},
      {"measurement": "dosage limitation approved by the FDA for infiltration local anesthesia", "setting": "[9]", "result": 7, "unit": "mg/kg"}
    ]},
    {"compound": "Cc1ncc([N+](=O)[O-])n1CCO", "note": "[Metronidazole]", "values": [
      {"measurement": "Cmax in subcutaneous TISF after TAD+IVAD relative to serum after IVAD alone", "setting": "[6]; 600 mg as TAD (400 mg) + IVAD (200 mg) vs 600 mg IVAD alone", "result": 10, "unit": "times"},
      {"measurement": "Cmax in TISF after TAD relative to Cmax in serum after IVAD", "setting": "[6]; TAD 500 mg vs IVAD 500 mg", "result": 24.7, "unit": "times"},
      {"measurement": "AUC", "setting": "[6]; [10]", "result": 1032, "unit": "µg·h/mL"},
      {"measurement": "Cmax", "setting": "[6]; [10]", "result": 160000, "unit": "ng/mL"},
      {"measurement": "AUC", "setting": "[6]; [11]", "result": 81, "unit": "µg·h/mL"},
      {"measurement": "Cmax", "setting": "[6]; [11]", "result": 4800, "unit": "ng/mL"},
      {"measurement": "AUC", "setting": "[6]; serum, IVAD, dose 600 mg", "result": 127, "unit": "µg·h/mL"},
      {"measurement": "Cmax", "setting": "[6]; serum, IVAD, dose 600 mg", "result": 14000, "unit": "ng/mL"},
      {"measurement": "adverse local or systemic effects after subcutaneous tumescent infiltration", "setting": "[6]", "result": "no adverse local or systemic effects"},
      {"measurement": "concentration-time profiles of cefazolin and metronidazole in TISF after TAD compared", "setting": "[6]; equal mg doses and equal mg/L concentrations in the TAD solution", "result": "identical"},
      {"measurement": "initial period in which serum concentrations were greater after IVAD than after TAD; beyond it TAD greater", "setting": "[6]; serum", "result": 10, "unit": "h"},
      {"measurement": "chemically stable for", "setting": "[2]", "result": "at least 72 hours"}
    ]},
    {"compound": "CCOC(=O)c1ccc(N)cc1", "note": "[benzocaine]", "values": [
      {"measurement": "effect on platelet aggregation induced by ADP", "setting": "[7]", "result": "inhibit platelet aggregation induced by ADP"}
    ]},
    {"compound": "CCCCN1CCCCC1C(=O)Nc1c(C)cccc1C", "note": "(stereo not shown) [bupivacaine]", "values": [
      {"measurement": "effect on platelet aggregation induced by ADP", "setting": "[7]", "result": "inhibit platelet aggregation induced by ADP"}
    ]},
    {"compound": "Gentamicin", "values": [
      {"measurement": "clinically significant adverse effects of subcutaneous injection in a dilute tumescent solution", "setting": "[1]; conclusion", "result": "without any clinically significant adverse effects"},
      {"measurement": "ecchymosis", "setting": "[1]", "result": "no ecchymosis"},
      {"measurement": "local tenderness upon palpation", "setting": "[1]", "result": "no local tenderness upon palpation"},
      {"measurement": "stinging upon injection", "setting": "[1]", "result": "no stinging upon injection"}
    ]}
  ]
}
